Experimental data reported in patent US10968203B2, “Pyrimidinyl-pyridyloxy-naphthyl compounds and methods of treating IRE1-related diseases and disorders” (Genentech, Inc., priority 2017, dated 2021).

System: XBP1s-luc 293 LUC
Assay: cellular PD assay, XBP1s-LUC reporter (Example 903)
Format: cell-based
Settings: Table 1; read-out: XBP1s-luc 293 LUC (IC50)
Procedure, shortened: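 Cellular IRE1α pathway activity was quantified from the luciferase signal of an XBP1-Luc reporter, where the luciferase fusion is in frame and expressed only from the spliced XBP1 transcript.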

SMILES	IC50 [nM]
Cc1ccc2c(NS(=O)(=O)[C@H](C)c3ccccc3)cccc2c1Oc1ncccc1-c1ccnc(N[C@H]2CCCNC2)n1 [Example 215, (R)—N-(6-methyl-5-((3-(2-((S)-piperidin-3-ylamino)pyrimidin-4-yl)pyridin-2-yl)oxy)naphthalen-1-yl)-1-phenylethanesulfonamide]	211
Cc1ccc2c(N3CCCC3=O)cccc2c1Oc1ncccc1-c1ccnc(N[C@H]2CCCNC2)n1 [Example 216, (S)-1-(6-Methyl-5-((3-(2-(piperidin-3-ylamino)pyrimidin-4-yl)pyridin-2-yl)oxy)naphthalen-1-yl)pyrrolidin-2-one]	260
Cc1ccc2c(NC(=O)C3CC(F)(F)C3)cccc2c1Oc1ncccc1-c1ccnc(N[C@H]2CCCNC2)n1 [Example 219, (S)-3,3-Difluoro-N-(6-methyl-5-(3-(2-(piperidin-3-ylamino)pyrimidin-4-yl)pyridin-2-yloxy)naphthalen-1-yl)cyclobutanecarboxamide]	119
Cc1ccc2c(NC(=O)C3(C(F)(F)F)CC3)cccc2c1Oc1ncccc1-c1ccnc(N[C@H]2CCCNC2)n1 [Example 220, (S)—N-(6-Methyl-5-(3-(2-(piperidin-3-ylamino)pyrimidin-4-yl)pyridin-2-yloxy)naphthalen-1-yl)-1-(trifluoromethyl)cyclopropanecarboxamide]	309
CCCS(=O)(=O)Nc1c(F)ccc2c(Oc3ncccc3-c3ccnc(N[C@H]4CCCNC4)n3)c(C)ccc12 [Example 221, (S)—N-(2-Fluoro-6-methyl-5-((3-(2-(piperidin-3-ylamino)pyrimidin-4-yl)pyridin-2-yl)oxy)naphthalen-1-yl)propane-1-sulfonamide]	37
Cc1ccc2c(NC(=O)[C@H]3C[C@H]3F)cccc2c1Oc1ncccc1-c1ccnc(N[C@H]2CCCNC2)n1 [Example 222, (1R,2R)-2-Fluoro-N-[6-methyl-5-[[3-[2-[[(3S)-3-piperidyl]amino]pyrimidin-4-yl]-2-pyridyl]oxy]-1-naphthyl]cyclopropanecarboxamide]	93
Cc1ccc2c(NCC3CC3)cccc2c1Oc1ncccc1-c1ccnc(N[C@H]2CCCNC2)n1 [Example 223, (S)-4-(2-((5-((Cyclopropylmethyl)amino)-2-methylnaphthalen-1-yl)oxy)pyridin-3-yl)-N-(piperidin-3-yl)pyrimidin-2-amine]	212
Cc1ccc2c(NCCC3CC3)cccc2c1Oc1ncccc1-c1ccnc(N[C@H]2CCCNC2)n1 [Example 224, (S)-4-(2-((5-((2-Cyclopropylethyl)amino)-2-methylnaphthalen-1-yl)oxy)pyridin-3-yl)-N-(piperidin-3-yl)pyrimidin-2-amine]	177
Cc1ccc2c(NS(=O)(=O)Cc3ccccn3)cccc2c1Oc1ncccc1-c1ccnc(N[C@@H]2CNC[C@H](F)C2)n1 [Example 225, N-(5-((3-(2-(((3S,5R)-5-Fluoropiperidin-3-yl)amino)pyrimidin-4-yl)pyridin-2-yl)oxy)-6-methylnaphthalen-1-yl)-1-(pyridin-2-yl)methanesulfonamide]	467
Cc1ccc2c(NC(=O)[C@@H]3C[C@H]3C)cccc2c1Oc1ncccc1-c1ccnc(N[C@H]2CCCNC2)n1 [Example 232, (1R,2R)-2-Methyl-N-(6-methyl-5-((3-(2-(((S)-piperidin-3-yl)amino)pyrimidin-4-yl)pyridin-2-yl)oxy)naphthalen-1-yl)cyclopropane-1-carboxamide]	136
Cc1ccc2c(NC(=O)[C@H]3C[C@@H]3C)cccc2c1Oc1ncccc1-c1ccnc(N[C@H]2CCCNC2)n1 [Example 234, (1S,2S)-2-Methyl-N-(6-methyl-5-((3-(2-(((S)-piperidin-3-yl)amino)pyrimidin-4-yl)pyridin-2-yl)oxy)naphthalen-1-yl)cyclopropane-1-carboxamide]	111
Cc1ccc2c(NC(=O)[C@H]3C[C@@H]3F)cccc2c1Oc1ncccc1-c1ccnc(N[C@H]2CCCNC2)n1 [Example 235, (1R,2S)-2-Fluoro-N-(6-methyl-5-((3-(2-(((S)-piperidin-3-yl)amino)pyrimidin-4-yl)pyridin-2-yl)oxy)naphthalen-1-yl)cyclopropane-1-carboxamide]	145
Cc1ccc2c(NC(=O)[C@@H]3C[C@H]3F)cccc2c1Oc1ncccc1-c1ccnc(N[C@H]2CCCNC2)n1 [Example 236, (1S,2R)-2-Fluoro-N-(6-methyl-5-((3-(2-(((S)-piperidin-3-yl)amino)pyrimidin-4-yl)pyridin-2-yl)oxy)naphthalen-1-yl)cyclopropane-1-carboxamide]	174
Cc1ccc2c(N3CCC(C)(C)C3=O)cccc2c1Oc1ncccc1-c1ccnc(N[C@H]2CCCNC2)n1 [Example 238, (S)-3,3-Dimethyl-1-(6-methyl-5-((3-(2-(piperidin-3-ylamino)pyrimidin-4-yl)pyridin-2-yl)oxy)naphthalen-1-yl)pyrrolidin-2-one]	275
Cc1ccc2c(Oc3ccccn3)cccc2c1Oc1ncccc1-c1ccnc(N[C@H]2CCCNC2)n1 [Example 239, (S)-4-(2-((2-Methyl-5-(pyridin-2-yloxy)naphthalen-1-yl)oxy)pyridin-3-yl)-N-(piperidin-3-yl)pyrimidin-2-amine]	245
CCCS(=O)(=O)Nc1cccc2c(Oc3ncc(C)cc3-c3ccnc(N[C@H]4CCCNC4)n3)c(C)ccc12 [Example 240, (S)—N-(6-Methyl-5-((5-methyl-3-(2-(piperidin-3-ylamino)pyrimidin-4-yl)pyridin-2-yl)oxy)naphthalen-1-yl)propane-1-sulfonamide]	167
Cc1ccc2c(NCCCF)cccc2c1Oc1ncccc1-c1ccnc(N[C@H]2CCCNC2)n1 [Example 241, (S)-4-(2-((5-((3-Fluoropropyl)amino)-2-methylnaphthalen-1-yl)oxy)pyridin-3-yl)-N-(piperidin-3-yl)pyrimidin-2-amine]	141
Cc1ccc2c(NC(=O)C3(CF)CC3)cccc2c1Oc1ncccc1-c1ccnc(N[C@H]2CCCNC2)n1 [Example 242, (S)-1-(Fluoromethyl)-N-(6-methyl-5-((3-(2-(piperidin-3-ylamino)pyrimidin-4-yl)pyridin-2-yl)oxy)naphthalen-1-yl)cyclopropane-1-carboxamide]	361
Cc1ccc2c(NS(=O)(=O)CCC(C)C)c(F)ccc2c1Oc1ncccc1-c1ccnc(N[C@H]2CCCNC2)n1 [Example 243, (S)—N-(2-Fluoro-6-methyl-5-((3-(2-(piperidin-3-ylamino)pyrimidin-4-yl)pyridin-2-yl)oxy)naphthalen-1-yl)-3-methylbutane-1-sulfonamide]	68
Cc1nc(CNc2cccc3c(Oc4ncccc4-c4ccnc(N[C@H]5CCCNC5)n4)c(C)ccc23)cs1 [Example 244, (S)-4-(2-((2-Methyl-5-(((2-methylthiazol-4-yl)methyl)amino)naphthalen-1-yl)oxy)pyridin-3-yl)-N-(piperidin-3-yl)pyrimidin-2-amine]	12
Cc1ccc2c(-n3nccc3C)cccc2c1Oc1ccccc1-c1ccnc(N[C@H]2CCCNC2)n1 [Example 246, (S)-4-(2-((2-Methyl-5-(5-methyl-1H-pyrazol-1-yl)naphthalen-1-yl)oxy)phenyl)-N-(piperidin-3-yl)pyrimidin-2-amine]	235
Cc1ccc2c(N3CCN(C)S3(=O)=O)cccc2c1Oc1ncccc1-c1ccnc(N[C@H]2CCCNC2)n1 [Example 247, (S)-2-Methyl-5-(6-methyl-5-((3-(2-(piperidin-3-ylamino)pyrimidin-4-yl)pyridin-2-yl)oxy)naphthalen-1-yl)-1,2,5-thiadiazolidine 1,1-dioxide]	360
Cc1ccc2c(N3CCCCCC3=O)cccc2c1Oc1ncccc1-c1ccnc(N[C@H]2CCCNC2)n1 [Example 249, (S)-1-(6-Methyl-5-((3-(2-(piperidin-3-ylamino)pyrimidin-4-yl)pyridin-2-yl)oxy)naphthalen-1-yl)azepan-2-one]	309
Cc1ccn(-c2cccc3c(Oc4ncccc4-c4ccnc(N[C@H]5CCCNC5)n4)c(C)ccc23)n1 [Example 250, (S)-4-(2-((2-methyl-5-(3-methyl-1H-pyrazol-1-yl)naphthalen-1-yl)oxy)pyridin-3-yl)-N-(piperidin-3-yl)pyrimidin-2-amine]	258
Cc1ccc2c(NC(=O)C3CCCC3(F)F)cccc2c1Oc1ncccc1-c1ccnc(N[C@H]2CCCNC2)n1 (stereo partly drawn) [Example 251, 2,2-Difluoro-N-(6-methyl-5-((3-(2-(((S)-piperidin-3-yl)amino)pyrimidin-4-yl)pyridin-2-yl)oxy)naphthalen-1-yl)cyclopentane-1-carboxamide]	145
Cc1ccc2c(NC(=O)CC(F)(F)F)cccc2c1Oc1ncccc1-c1ccnc(N[C@H]2CCCNC2)n1 [Example 252, (S)-3,3,3-Trifluoro-N-(6-methyl-5-(3-(2-(piperidin-3-ylamino)pyrimidin-4-yl)pyridin-2-yloxy)naphthalen-1-yl)propanamide]	134
Cc1ccc2c(NC(=O)C3CC4(CCC4)C3)cccc2c1Oc1ncccc1-c1ccnc(N[C@H]2CCCNC2)n1 [Example 255, (S)—N-(6-Methyl-5-((3-(2-(piperidin-3-ylamino)pyrimidin-4-yl)pyridin-2-yl)oxy)naphthalen-1-yl)spiro[3.3]heptane-2-carboxamide]	182
Cc1ccc2c(NCc3csc(C(C)C)n3)cccc2c1Oc1ncccc1-c1ccnc(N[C@H]2CCCNC2)n1 [Example 256, (S)-4-(2-((5-(((2-Isopropylthiazol-4-yl)methyl)amino)-2-methylnaphthalen-1-yl)oxy)pyridin-3-yl)-N-(piperidin-3-yl)pyrimidin-2-amine]	210
Cc1ccc2c(Nc3cc(C)n(C)n3)cccc2c1Oc1ncccc1-c1ccnc(N[C@H]2CCCNC2)n1 [Example 258, (S)-4-(2-((5-((1,5-Dimethyl-1H-pyrazol-3-yl)amino)-2-methylnaphthalen-1-yl)oxy)pyridin-3-yl)-N-(piperidin-3-yl)pyrimidin-2-amine]	419
CCCS(=O)(=O)Nc1cccc2c(Oc3ncc(CC)cc3-c3ccnc(N[C@H]4CCCNC4)n3)c(C)ccc12 [Example 259, (S)—N-(5-((5-ethyl-3-(2-(piperidin-3-ylamino)pyrimidin-4-yl)pyridin-2-yl)oxy)-6-methylnaphthalen-1-yl)propane-1-sulfonamide]	361
